Measurements published in patent US20120108641A1, “ANTITUMOR COMBINATION INCLUDING AVE8062 AND SORAFENIB” (SANOFI, priority 2009, published 2012).
“And” between values parts separate entries of the source, which are not always exact repeats. Equal values may be shown once. Read-outs that look alike come from different tables or passages of the source.

Assays:
[1] = test system: NCI-H460 human non-small cell lung tumour; experiment: Study 3: sorafenib administered 24 h after AVE8062, antitumour activity; assay type: in vivo, female SCID mice
Text: (§1) A product is considered to be active if the log10 cell kill is greater than or equal to 0.7.
(§2) The activity in this case is acknowledged for a net log cell kill that is positive (>0). A cytostatic activity corresponds to a net log cell kill of 0, that is to say that the treatment time is equal to the duration of the antitumour effect.
(§3) In the case of an early tumour treatment, the implanted animals are distributed randomly in various groups which are, or are not (controls), intended to receive the treatment(s). […] The animals are observed and weighed every day. A dose which induces a weight loss of 20% or more at the lowest point (average of the group) or a mortality of 10% or more is considered to be toxic. The tumour activity is evaluated at the highest non-toxic dose, or at the highest dose tested, within the context of a non-cytotoxic agent.
(§4) The tumours are measured 2 or 3 times a week until the tumour reaches approximately 2 g or until the animal dies, if this occurs before the tumour reaches 2 g. The animals are autopsied when they are sacrificed.
(§5) The antitumor activity is determined in accordance with various recorded parameters, such as the dose (mg/kg), the method of administration, the administration time, the toxicity and the log10 cell kill, which depends on the tumour growth delay and also on the tumour doubling time.
(§6) Within the context of the following studies, the AVE8062, in hydrochloride form, is formulated in water with 0.9% NaCl.
Study 3: Sorafenib Administered 24 h after AVE8062 in the Combination (Table III)
The AVE8062 was administered intravenously on days 9 and 14 post implantation of the NCI-H460 pulmonary tumour in female SCID mice. The sorafenib was administered orally from day 9 to day 20. When the 2 agents were administered in combination, the same schedules were used as for the agents alone, but the administrations of sorafenib were started 24 hours after that of AVE8062.

[2] = test system: NCI-H460 human non-small cell lung tumour; experiment: Study 2: sorafenib administered 1 h after AVE8062, antitumour activity; assay type: in vivo, female SCID mice
Text: as §1, §3, §4, §5, §6
Study 2: Sorafenib Administered 1 h after AVE8062 in the Combination (Table II)
(§7) The AVE8062 was administered intravenously on days 10 and 14 post tumour implantation. The sorafenib was administered orally from day 10 to day 14. The two agents were administered in combination, according to the same schedules as those used for the agents alone, but the administration of sorafenib having been staggered one hour after the administration of the AVE8062.

[3] = Experimental: as §3, §6, §7
[4] = Study 3: toxicity, highest non-toxic dose; assay type: in vivo, female SCID mice; conditions: Study 3, AVE8062 alone i.v. days 9, 14
Experimental: The animals are observed and weighed every day.
The AVE8062 was administered intravenously on days 9 and 14 post implantation of the NCI-H460 pulmonary tumour in female SCID mice.

[5] = test system: NCI-H460 human non-small cell lung tumour; experiment: Study 1: sorafenib administered simultaneously with AVE8062, antitumour activity; assay type: in vivo, female SCID mice; conditions: AVE8062 22.3 mg/kg per injection i.v. days 9, 13
Text: as §1, §2, §3, §4, §5, §6
Study 1: Sorafenib Administered Simultaneously with AVE8062 (Table I)
The AVE8062 was administered intravenously on days 9 and 13 post tumour implantation. The sorafenib was administered orally from day 9 to day 24. When the two agents were administered in combination, the same schedules were used as for the agents alone, the combination of the two agents having been carried out simultaneously on days 9 and 13.

[6] = sorafenib 100.0 mg/kg per injection p.o. days 9-20
[7] = sorafenib 100.0 mg/kg/admin p.o. days 10-14
[8] = AVE8062 22.3 mg/kg per injection i.v. days 9, 14
[9] = AVE8062 22.3 mg/kg/admin i.v. days 10, 14

With `CNC(=O)c1cc(Oc2ccc(NC(=O)Nc3ccc(Cl)c(C(F)(F)F)c3)cc2)ccn1` [Sorafenib, 4-[4-[[4-chloro-3-(trifluoromethyl)phenyl]carbamoylamino]phenoxy]-N-methylpyridine-2-carboxamide] the CR [1, 6] was 0/6, the Observations [1, 6] was “HDT - no cytostasis” and the PR [1, 6] was 0/6. The “gross log cell kill” value [1, 6] was 2.4, the “net log cell kill” value [1, 6] was −0.4 and the Observations [2, 7] was “HDT - Active”. For the same compound, the Regressions complete [2, 7] was 0/6, the Regressions partial [2, 7] was 0/6 and the “T − C” value [2, 7] was 6.1 days. For the same compound, the log cell kill [2, 7] was 1.1 and the “Mortality (day of death)” value [3, 7] was 0/6.

For `COc1ccc(/C=C\c2cc(OC)c(OC)c(OC)c2)cc1NC(=O)[C@@H](N)CO` [AVE8062, (Z)—N-[2-methoxy-5-[2-(3,4,5-trimethoxyphenyl)vinyl]phenyl]-L-serinamide], the “highest non-toxic dose (HNTD)” value [4] was 36 mg/kg per injection, the CR [1, 8] was 0/6 and the Observations [1, 8] was “Active”. For the same compound, the PR [1, 8] was 0/6, the “gross log cell kill” value [1, 8] was 1.7 and the “net log cell kill” value [1, 8] was 0.3. The Observations [2, 9] was “HNTD - active”, the Regressions complete [2, 9] was 0/5 and the “T − C” value [2, 9] was 5.8 days. The log cell kill [2, 9] was 1.1, the Regressions partial ([2]; AVE8062 22.3 mg/kg/admin i.v. days 10, 14, 22.3 mg/kg) was “without inducing tumour regression and 0/5” and the “Mortality (day of death)” value [3, 9] was 0/5. For the same compound, the “% BWC (day of lowest point)” value ([3]; AVE8062 22.3 mg/kg/admin i.v. days 10, 14, lowest point day 21) was −3.2 (21) %, the “highest non-toxic dose (HNTD)” value ([3]; Study 2, AVE8062 alone i.v. days 10, 14) was 22.3 mg/kg per injection and the CR [5] was 0/6. The Observations [5] was “Inactive”, the PR [5] was 0/6 and the log cell kill [5] was 0.6. For the same compound, the “net log cell kill” value [5] was −0.1.
